Assay results: patent publication US20160222014A1, “COMPOUNDS FOR REGULATING FAK AND/OR SRC PATHWAYS” (ASANA BIOSCIENCES, LLC, priority 2013, published 2016)

Tests used:
AURKB (Aurora B) enzyme = molecular target: T1, AURKB (Aurora B) enzyme (Homo sapiens, UniProt Q96GD4); test: Aurora B HTRF assay; type: biochemical; details: read-out: AuroraB IC50
T1 construct: purchased Invitrogen PVR 130
Method: AURKB (Aurora B) enzyme was obtained (Invitrogen, Cat No. PVR 130, Lot No. 857013J). A 8.64 μM stock was used at a final concentration 5 nM in the assay.
Lance@Ultera Ulight-PLK (Ser137) peptide substrate
Peptide substrate was obtained from Perkin Elmer (Lot#1629793, TRF0110-M). A 5 μM stock was used at a final concentration of 50 nM in the assay.
10 mM stock prepared freshly as above, used at a final concentration of 30 μM in assay.
The plate was covered with aluminum foil, put on a shaker and incubated 1 h at rt.
Reference: Pfizer aurora inhibitor PF-03814735 was procured from Selleckchem: Cat# S2725
Using stock Lance detection buffer, 1× Lance detection buffer was prepared. • 1. 10× lance detection buffer was diluted to 1×, mixed well and 100 μL was removed, and was used to substitute with antibody and EDTA (for a total of 2200 μL). • 2. 88 μL of […] EDTA was added from 500 mM stock. • 3. 14 μL Europium labeled antibody (LANCE@ Ultra EU-Anti-P-PLK(Ser 137), TRF0203-D, Lot No. 1630351, Perkin Elmer) was added from 625 nM stock; required concentration was 2 nM in the assay. • 4. The buffer well was mixed and 20 μL was transferred to the each well in the assay plate. • 5. The solutions were incubated for 1 h at rt. • 6. The plate was read using MET-HTRF® protocol using Pherastar equipment.

recombinant human FAK1 = molecular target: T2, recombinant human FAK1 (Homo sapiens, UniProt Q05397); test: FAK1 HTRF assay; type: biochemical
T2 construct: fused on or other part: N-terminal 6xHis tag
Method: Active FAK1 was prepared for use in the Homogeneous Time-Resolved Fluorescence (HTRF) assay. Briefly, N-terminal 6 His tagged recombinant human FAK1, from residue 692-end (GenBank accession no. L13616) was expressed by Bacculovirus in sf9 cells. […] A 1.6 mg/mL (45 μM) stock was used in the HTRF assay at a final concentration of 10 nM.
Gastrin precursor (tyr87) biotinylated peptide which contains the residues surrounding tyrosine 87 (EEAY*GWM) of gastrin precursor was obtained (Cell Signaling Tech, Item no. 1310, Lot 7). The peptide was provided at a stock concentration of 6 μM, and used a final concentration of 0.5 μM in the HTRF assay.
10 mM stock in 100 μL Enzyme assay buffer pH7.4 was prepared freshly and used at a final concentration of 10 μM in the assay.
Powders were dissolved in 100% DMSO to a final stock concentration of 10 mM. The volume needed (in μL) to add for 10 mM=mg powder is 10^5/MW of compound. The final compound concentration in the assay plate started at 10 μM.
Pfizer FAK inhibitor PF-562271 (N-methyl-N-(3-(((2-((2-oxoindolin-5-yl)amino)-5-(trifluoromethyl)pyrimidin-4-yl)amino)methyl)pyridin-2-yl)methanesulfonamide) was prepared as per the reported procedure from US Patent Publication No. 2005/256145A1.
Streptavidin-Allophycocyanin was obtained (Prozyme, Cat. No. PJ25S. SA-APC was provided at a stock concentration of 2.06 mg/mL, where APC concentration was 11.6 μM and the streptavidin concentration was 15.5 μM. SA-APC was used at a final concentration of 12 nM in the assay (based on streptavidin concentration).
This reagent was obtained from Perkin ElmerAD0068. Europium-W1024-PT-66 Anti Phospho Tyrosine Ab is a monoclonal IgG1 that recognizes phospho tyrosine peptide. 100 μg/mL stock was used at a final concentration of 0.1 nM in the assay.
• 1. The compound dilutions were made by TECAN liquid handler as per the scheme in FIG. 1. • 2. 16 μL of diluted compound was added to each well of the assay plate using TECAN liquid handler. • 3. 20 μL of substrate mix (biotinylated gastrin precursor) was added into each well of the assay plate manually. • 4. 10 μL of enzyme mix (FAK1) was added to each well except mins. • 5. The plate was incubated at rt for 45 min with shaking. • 6. The HTRF mix was prepared and 75 μL was added to the HTRF plate. • 7. After the incubation was over, 10 μL of the mixture was transferred to the HTRF assay plate and incubated for 45 min at rt with shaking. • 8. The readings were taken in Pherastar in HTRF mode (ext 337 nm, em 665 & 620 nm) • 9. The results were analyzed using Graphpad Prism® software after calculation the z factor signal window and % inhibition. • 10. The IC50 was calculated.

T1 sequence (Q96GD4 whole entry): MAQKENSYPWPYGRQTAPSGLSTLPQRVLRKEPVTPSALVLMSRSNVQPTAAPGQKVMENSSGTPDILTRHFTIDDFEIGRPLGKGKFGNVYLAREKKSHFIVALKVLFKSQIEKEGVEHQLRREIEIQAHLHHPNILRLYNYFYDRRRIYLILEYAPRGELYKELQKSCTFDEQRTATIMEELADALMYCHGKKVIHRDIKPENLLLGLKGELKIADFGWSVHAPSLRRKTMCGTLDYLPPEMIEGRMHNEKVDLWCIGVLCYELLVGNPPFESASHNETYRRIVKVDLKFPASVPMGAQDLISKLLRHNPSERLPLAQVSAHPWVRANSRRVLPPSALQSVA
T2 sequence (Q05397 422-680 limits assumed): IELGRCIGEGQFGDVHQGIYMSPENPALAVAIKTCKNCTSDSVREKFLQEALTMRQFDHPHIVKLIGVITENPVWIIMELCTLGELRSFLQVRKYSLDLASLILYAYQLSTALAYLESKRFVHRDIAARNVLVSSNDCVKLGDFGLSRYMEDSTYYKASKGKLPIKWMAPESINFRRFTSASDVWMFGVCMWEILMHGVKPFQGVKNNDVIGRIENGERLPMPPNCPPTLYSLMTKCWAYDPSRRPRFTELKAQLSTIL

SMILES | IC50 (AURKB (Aurora B) enzyme) | IC50 (recombinant human FAK1)
Cc1cc(Nc2cc3c(ccn3S(=O)(=O)c3ccccc3C#N)cn2)ccc1N1CCNCC1 [Example 390] | < 0.02 µM | < 0.02 µM
O=c1[nH]c2ccc(Nc3ncc4ccn(S(=O)(=O)c5cccc6cccnc56)c4n3)cc2[nH]1 [Example 395] | < 0.02 µM | < 0.02 µM
CN(c1ncccc1CN1C(=O)Cc2cnc(Nc3ccc(N4CCC(O)CC4)cc3)nc21)S(C)(=O)=O [Example 404] | > 1 µM | 
CC1(C)CN(S(=O)(=O)c2ccccc2C#N)c2nc(Nc3ccc(N4CCNCC4)cc3)ncc21 [Example 461] | > 1 µM | 
CN(c1ccccc1Cn1ccc2cnc(Nc3ccc(N4CCC(N)CC4)cc3)nc21)S(C)(=O)=O [Example 463] | < 0.02 µM | 
C[C@@H]1CN(c2ccc(Nc3ncc4c(n3)N(S(=O)(=O)c3ccccc3C#N)CC4(C)C)cc2)CCN1 [Example 466] | > 1 µM | 
C[C@@H]1CNCCN1c1ccc(Nc2ncc3ccn(Cc4ccccc4N(C)S(C)(=O)=O)c3n2)cc1 [Example 482] | < 0.02 µM | 
C[C@H]1CN(c2ccc(Nc3ncc4ccn(Cc5cccnc5N(C)S(C)(=O)=O)c4n3)cc2)CCN1C [Example 487] | < 0.02 µM | 
C[C@@H]1CN(C)CCN1c1ccc(Nc2ncc3ccn(Cc4ccccc4N(C)S(C)(=O)=O)c3n2)cc1 [Example 488] | < 0.02 µM | 
CN1CCN(c2ccc(Nc3ncc4c(n3)N(S(=O)(=O)c3cccc5cccnc35)CC4(C)C)cc2)CC1 [Example 498] | > 1 µM | 
CC1(C)CN(S(=O)(=O)c2cccc3cccnc23)c2nc(Nc3ccc(N4CCNCC4)c(F)c3)ncc21 [Example 524] | > 1 µM | 
N#Cc1ccccc1S(=O)(=O)n1ccc2cnc(Nc3ccc4c(c3)CC3CNCCN43)cc21 (centres unmarked) [Example 551] | < 0.02 µM | 
CN(c1ccccc1Cn1ccc2cnc(Nc3ccc(N4CCNC(C)(C)C4=O)cc3)nc21)S(C)(=O)=O [Example 552] | < 0.02 µM | 
C[C@H]1CN(c2ccc(Nc3ncc4c(n3)N(S(=O)(=O)c3cccc5cccnc35)CC4(C)C)cc2F)CCN1 [Example 554] | > 1 µM | 
C[C@H]1CN(c2ccc(Nc3ncc4ccn(Cc5ccccc5N(C)S(C)(=O)=O)c4n3)cc2F)CCN1 [Example 557] | < 0.02 µM | 
C[C@H]1CNCCN1c1ccc(Nc2ncc3c(n2)N(S(=O)(=O)c2cccc4cccnc24)CC3(C)C)cc1 [Example 564] | > 1 µM | 
CN(C)C1CCCN(c2ccc(Nc3ncc4ccn(Cc5ccccc5N(C)S(C)(=O)=O)c4n3)cc2)C1 (centres unmarked) [Example 598] | < 0.02 µM | 
CN(c1ccccc1Cn1ccc2cnc(Nc3ccc(N4CCNC(CO)C4)cc3)nc21)S(C)(=O)=O (centres unmarked) [Example 602] | < 0.02 µM | 
CN(C)C1CN(c2ccc(Nc3ncc4ccn(Cc5ccccc5N(C)S(C)(=O)=O)c4n3)cc2F)C1 [Example 608] | < 0.02 µM | 
CN(c1ccccc1Cn1ccc2cnc(Nc3ccc(C4CNCCN4)cc3)nc21)S(C)(=O)=O (centres unmarked) [Example 610] | < 0.02 µM | 
N#Cc1ccccc1S(=O)(=O)n1ccc2cnc(Nc3ccc(C4CNCCN4)cc3)cc21 (centres unmarked) [Example 614] | < 0.02 µM | 
C[C@H](O)CN1CCN(c2ccc(Nc3cc4c(ccn4S(=O)(=O)c4ccccc4C#N)cn3)cc2)CC1 [Example 631] | < 0.02 µM | 
Cc1cc(Nc2ncc3c(n2)N(S(=O)(=O)c2cccc4cccnc24)CC3(C)C)ccc1N1CCC(N(C)C)CC1 [Example 648] | > 1 µM | 
C[C@H](O)CN1CCN(c2ccc(Nc3ncc4ccn(Cc5ccccc5N(C)S(C)(=O)=O)c4n3)cc2)C[C@H]1C [Example 692] | < 0.02 µM | 
